From patent US8445521B2, “Synergistic antimicrobial composition” (Dow GLobal Technologies LLC, priority 2009, dated 2013)

Assays:
[1] = system: oil field isolated anaerobic consortium, mainly SRB; assay: Biocidal efficacy (MBC, complete bacterial kill) against anaerobic bacteria in contaminated salt solution; type: cell-based, sulfate reducing bacteria (SRB); details: 40° C., 24 hours
Method: Inside an anaerobic chamber (BACTRON anaerobic chamber), a deaerated sterile salt solution (3.1183 g of NaCl, 1.3082 mg of NaHCO3, 47.70 mg of KCl, 72.00 mg of CaCl2, 54.49 mg of MgSO4, 172.28 mg of Na2SO4, 43.92 mg of Na2CO3 in 1 L water) was contaminated with an oil field isolated anaerobic consortium, mainly SRB, at final bacterial concentrations of 10^6 to 10^7 CFU/mL. The aliquots of this contaminated water were then treated with NaOPP and DMOZ, or the NaOPP/DMOZ combination, NaOPP and Tris Nitro, or the NaOPP/Tris Nitro combination, NaOPP and HHT, or the NaOPP/HHT combination at different active concentration levels. […] Tables 1-3 summarize the efficacy of each biocide and their blends, and the Synergy Index of each combination.

[2] = system: Pseudomonas aeruginosa, ATCC 10145 and Staphylococcus aureus, ATCC 6538; assay: Biocidal efficacy (MBC, complete bacteria kill) against aerobic bacteria in contaminated NaCl solution; type: cell-based; details: 37° C., 24 hours
Method: A sterile NaCl solution (0.85%) was contaminated with Pseudomonas aeruginosa, ATCC 10145 and Staphylococcus aureus, ATCC 6538 at final bacterial concentration of ca. 10^6 CFU/mL. The aliquots of this contaminated water were then treated with NaOPP and Tris Nitro, or the NaOPP/Tris Nitro combination, NaOPP and DMOZ or the NaOPP/DMOZ combination at different active concentration levels. After the mixtures were incubated at 37° C. for 24 hours, the biocidal efficacy was determined by minimum tested biocide concentration for complete bacteria kill in the aliquots. Tables 4 and 5 summarize the efficacy of each biocide and their blends, and the Synergy Index of each combination.

[3] = NaOPP alone or NaOPP part of NaOPP/DMOZ blend
[4] = NaOPP alone or NaOPP part of NaOPP/Tris Nitro blend
[5] = Tris Nitro alone or Tris Nitro part of NaOPP/Tris Nitro blend
[6] = DMOZ alone or DMOZ part of NaOPP/DMOZ blend

[Na+].[O-]c1ccccc1-c1ccccc1 [NaOPP, sodium o-phenylphenylate]
MBC (active ppm) NaOPP [1, 3]: 333.3 active ppm
MBC (active ppm) NaOPP ([1]; NaOPP alone or NaOPP part of NaOPP/HHT blend): 500 active ppm
MBC (active ppm) NaOPP [1, 4]: 500 active ppm
Average MBC (active ppm) NaOPP [2, 3]: 292.9 active ppm
MBC (active ppm) NaOPP [2, 4]: 266.3 active ppm

O=[N+]([O-])C(CO)(CO)CO [Tris Nitro, tris(hydroxymethyl)nitromethane]
MBC (active ppm) Tris Nitro [1, 5]: 44.4 active ppm
MBC (active ppm) Tris Nitro [2, 5]: 25.1 active ppm

CC1(C)COCN1 [DMOZ, 4,4-dimethyloxazolidine]
MBC (active ppm) DMOZ [1, 6]: 74.1 active ppm
Average MBC (active ppm) DMOZ [2, 6]: 86.1 active ppm

OCCN1CN(CCO)CN(CCO)C1 [HHT, hexahydro-1,3,5-tris(2-hydroxyethyl)-s-triazine]
MBC (active ppm) HHT ([1]; HHT alone or HHT part of NaOPP/HHT blend): 111.1 active ppm
